Consider 15 compounds from patent US9186354B2, “Pyrrolidine derived β3 adrenergic receptor agonists” (Merck Sharp & Dohme Corp., priority 2010, dated 2015).

The structures appear in SMILES notation.

T1 sequence (P13945 whole entry): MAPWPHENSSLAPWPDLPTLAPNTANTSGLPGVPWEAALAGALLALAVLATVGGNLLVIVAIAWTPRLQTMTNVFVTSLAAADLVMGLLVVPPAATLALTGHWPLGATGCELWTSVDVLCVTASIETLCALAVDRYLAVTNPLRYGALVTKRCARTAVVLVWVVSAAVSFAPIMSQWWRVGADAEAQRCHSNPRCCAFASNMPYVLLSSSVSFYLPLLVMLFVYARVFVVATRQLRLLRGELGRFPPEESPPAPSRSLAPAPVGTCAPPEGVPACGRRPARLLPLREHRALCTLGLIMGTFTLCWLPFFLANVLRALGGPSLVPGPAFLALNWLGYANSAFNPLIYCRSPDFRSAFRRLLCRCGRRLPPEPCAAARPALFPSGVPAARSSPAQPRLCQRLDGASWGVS

The first assay addresses T1, human β3 adrenergic receptor (Homo sapiens, UniProt P13945).
T1 construct: stably transfected with the cloned β-adrenergic receptor (β1, β2 or β3); expressed in transfected cells; host or cells: Chinese hamster ovary (CHO) cells, stably transfected
As to the kind of experiment: β3AR-cAMP functional assay in CHO cells stably transfected with cloned β3-adrenergic receptor (LANCE). The following applies: Table 2; Beta-3 agonist in vitro functional assay, given as ranges; read-out: Human β3 Agonist Functional Activity. In kind it is cell-based. As for the experimental part: Functional Assay: cAMP production in response to ligand is measured according to Barton, et al. (1991, Agonist-induced desensitization of D2 dopamine receptors in human Y-79 retinoblastoma cells. Mol. Pharmacol. […]) modified as follows. cAMP production is measured using a homogenous time-resolved fluorescence resonance energy transfer immunoassay (LANCE™, Perkin Elmer) according to the manufacture's instructions. Chinese hamster ovary (CHO) cells, stably transfected with the cloned β-adrenergic receptor (β1, β2 or β3) are harvested after 3 days of subculturing. Harvesting of cells is done with Enzyme-free Dissociation Media (Specialty Media). Cells are then counted and resuspended in assay buffer (Hank's Balanced salt solution supplemented with 5 mM HEPES, […]) containing a phosphodiesterase inhibitor (IBMX, 0.6 mM). The reaction is initiated by mixing 6,000 cells in 6 μL with 6 μL Alexa Fluor labeled cAMP antibody (LANCE™ kit) which is then added to an assay well containing 12 μL of compound (diluted in assay buffer to 2× final concentration). The reaction proceeds for 30 minutes at room temperature and is terminated by the addition of 24 ul detection buffer (LANCE™ kit). The assay plate is then incubated for 1 hour at room temperature and time-resolved fluorescence measured on a Perkin Elmer Envision reader or equivalent. The unknown cAMP level is determined by comparing fluorescence levels to a cAMP standard curve.
The non-selective, full agonist […] ligand isoproterenol is used at all three receptors to determine maximal stimulation. The human β3 adrenergic receptor (AR) selective ligand (S)—N-[4-[2-[[2-hydroxy-3-(4-hydroxyphenoxy)propyl]amino]ethyl]-phenyl]-4-iodobenzenesulfonamide is used as a control in all assays. Isoproterenol is titrated at a final concentration in the assay of 10^−10 M to 10^−5 M and the selective ligand (S)—N-[4-[2-[[2-hydroxy-3-(4-hydroxyphenoxy)propyl]amino]ethyl]phenyl]-4-iodobenzenesulfonamide is titrated at the β3 receptor at concentration of 10^−10 M to 10^−5 M. Unknown ligands are titrated at all 3 β-adrenergic receptor subtypes at a final concentration in the assay of 10^−10 M to 10^−5 M to determine the EC50. The EC50 is defined as the concentration of compound that gives 50% activation of its own maximum.
As for `CCc1nnc([C@H]2[C@@H]3CN(C(=O)c4ccc(C[C@@H]5CC[C@H]([C@H](O)c6ccccc6)N5)cn4)C[C@@H]32)o1` [Example 12, (R)-{(2R, 5S)-5-[(6-{[6-(5-ethyl-1,3,4-oxadiazol-2-yl)-3-azabicyclo[3.1.0]hex-3-yl]carbonyl}pyridin-3-yl)methyl]pyrrolidin-2-yl)(phenyl)methanol], the EC50 was in the range of 11 to 100 nM.
In the case of `O=C(c1ccc(C[C@@H]2CC[C@H]([C@H](O)c3ccccc3)N2)cn1)N1CCN(Cc2nnn(CC(F)(F)F)n2)CC1` [Example 14, (R)-phenyl[(2R, 5S)-5-({6-[(4-{[2-(2,2,2-trifluoroethyl)-2H-tetrazol-5-yl]methyl}piperazin-1-yl)carbonyl]pyridin-3-yl}methyl)pyrrolidin-2-yl]methanol], the EC50 lay in the range of 11 to 100 nM.
In the case of `Cn1nnnc1[C@H]1[C@@H]2CN(C(=O)c3ccc(C[C@@H]4CC[C@H]([C@H](O)c5ccccc5)N4)cn3)C[C@@H]21` [Example 9, (R)-{(2R, 5S)-5-[(6-{[6-(1-methyl-1H-tetrazol-5-yl)-3-azabicyclo[3.1.0]hex-3-yl]carbonyl}pyridin-3-yl)methyl]pyrrolidin-2-yl)(phenyl)methanol], the EC50 was in the range of 11 to 100 nM.
For `O=C(c1ccc(C[C@@H]2CC[C@H]([C@H](O)c3ccccc3)N2)cn1)N1C[C@@H]2[C@H](C1)[C@H]2c1nnco1` [Example 11, (R)-{(2R, 5S)-5-[(6-{[6-(1,3,4-oxadiazol-2-yl)-3-azabicyclo[3.1.0]hex-3-yl]carbonyl}pyridin-3-yl)methyl]pyrrolidin-2-yl)(phenyl)methanol], the EC50 lay within 11 to 100 nM.
On to `O=C(c1ccc(C[C@@H]2CC[C@H]([C@H](O)c3ccccc3)N2)cn1)N1C[C@@H]2[C@H](C1)[C@H]2c1nnc(-c2cnccn2)o1` [Example 13, (R)-phenyl{(2R, 5S)-5-[(6-{[6-(5-pyrazin-2-yl-1,3,4-oxadiazol-2-yl)-3-azabicyclo[3.1.0]hex-3-yl]carbonyl}pyridin-3-yl)methyl]pyrrolidin-2-yl)methanol], for which the EC50 is less than 10 nM.
On to `O=C(c1ccc(C[C@@H]2CC[C@H]([C@H](O)c3ccccc3)N2)cn1)N1C[C@@H]2[C@H](C1)[C@H]2c1nnnn1CC(F)(F)F` [Example 10], for which the EC50 lay within 11 to 100 nM.
Take `O=C(c1ccc(C[C@@H]2CC[C@H]([C@H](O)c3ccccc3)N2)cn1)N1CCC2(CCOC2=O)CC1` [Example 8, 8-{[5-({(2S, 5R)-5-[(R)-hydroxy(phenyl)methyl]pyrrolidin-2-yl}methyl)pyridin-2-yl]carbonyl}-2-oxa-8-azaspiro[4.5]decan-1-one]: the EC50 is 11 to 100 nM.

Staying with this assay, now noted: cAMP production, CHO cells expressing human β3 AR; read-out: human β3 functional activity.
Turning to `O=C(c1ccc(C[C@@H]2CC[C@H]([C@H](O)c3ccccc3)N2)cn1)N1CCC(c2nnnn2CC(F)(F)F)CC1` [Example 5, (R)-Phenyl-(2R,5S)-5-{[6-({4-[1-(2,2,2-trifluoroethyl)-1H-tetrazol-5-yl]piperidin-1-yl}carbonyl-pyridin-3-yl]methyl}pyrrolidin-2-yl)methanol], the EC50 is 101 to 1000 nM.
For `O=C(c1ccc(C[C@@H]2CC[C@H]([C@H](O)c3ccccc3)N2)cn1)N1C[C@@H]2C(n3cnnn3)[C@@H]2C1` (stereo partly drawn) [Example 6, (R)-phenyl[(2R,5S)-5-[(6-{[(1R,5S,6S)-6-(1H-tetrazol-1-yl)-3-azabicyclo[3.1.0]hex-3yl]carbonyl}pyridin-3-yl)methyl]pyrrolidine-2-yl]methanol], the EC50 was in the range of 11 to 100 nM.
On the same count and under the same terms, the same measure for `O=C(c1ccc(C[C@@H]2CC[C@H]([C@H](O)c3ccccc3)N2)cn1)N1CCN(Cc2ccccn2)CC1` [Example 7, (R)-phenyl[(2R,5S)-5-[(6-{[4-(pyridin-2-ylmethyl)piperazin-1-yl]carbonyl}pyridin-3-yl)methyl]pyrrolidin-2-yl]methanol]: 101 to 1000 nM.
`O=C(Nc1ccc(C[C@@H]2CC[C@H]([C@H](O)c3ccccc3)N2)cn1)[C@@H]1CCc2scnc21` [Example 1]: the EC50 is 20.4 nM.

The next assay has as its target T1, human β3 adrenergic receptor. The description is as above. In kind it is cell-based. As to conditions: Table 1; determined with β3AR-cAMP assay, given as ranges; read-out: Human β3 Binding. (Changes in cAMP serve as a functional read-out for many G protein-coupled receptors.)
Regarding `O=C(Cc1nnc(-c2ccccc2)[nH]1)Nc1ccc(C[C@@H]2CC[C@H]([C@H](O)c3ccccc3)N2)cn1` [Example 4, N-[5-([(2S, 5R)-5-[(R)-hydroxy(phenyl)methyl]pyrrolidin-2-yl}methyl)pyridin-2-yl]-2-(5-phenyl-4H-1,2,4-triazol-3-yl)acetamide], the EC50 lay within 11 to 100 nM.
In the case of `O=C(Cn1ncccc1=O)Nc1ccc(C[C@@H]2CC[C@H]([C@H](O)c3ccccc3)N2)cn1` [Example 3, N-[5-({(2S, 5R)-5-[(R)-hydroxy(phenyl)methyl]pyrrolidin-2-yl}methyl)pyridin-2-yl]-2-(6-oxopyridazin-1(6H)-yl)acetamide], the EC50 fell in the range of 101 to 1000 nM.
For `O=C(Nc1ccc(C[C@@H]2CC[C@H]([C@H](O)c3ccccc3)N2)cn1)C1CCc2nccc(=O)n21` (stereo partly drawn) [Example 2, N-[5-({(2S, 5R)-5-[(R)-hydroxy(phenyl)methyl]pyrrolidin-2-yl}methyl)pyridin-2-yl]-4-oxo-4,6,7,8-tetrahydropyrrolo[1,2-a]pyrimidine-6-carboxamide], the EC50 lay within 11 to 100 nM.

Another assay deals with T2, β3AR (Rattus norvegicus, UniProt P26255).
T2 construct: Following intravenous administration to rats; host or cells: live rats (endogenous receptor, bladder)
T2 sequence (P26255 whole entry): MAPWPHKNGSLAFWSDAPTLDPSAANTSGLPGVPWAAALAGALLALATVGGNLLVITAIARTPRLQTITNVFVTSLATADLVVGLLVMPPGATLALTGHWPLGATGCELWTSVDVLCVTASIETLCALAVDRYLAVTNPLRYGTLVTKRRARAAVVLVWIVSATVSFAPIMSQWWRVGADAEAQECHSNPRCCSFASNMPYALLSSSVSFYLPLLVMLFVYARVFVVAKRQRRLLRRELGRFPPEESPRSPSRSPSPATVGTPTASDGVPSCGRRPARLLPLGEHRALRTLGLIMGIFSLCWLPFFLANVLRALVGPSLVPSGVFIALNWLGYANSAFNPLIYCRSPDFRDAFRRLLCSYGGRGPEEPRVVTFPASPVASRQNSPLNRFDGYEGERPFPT
Experiment: not given
The following applies: rats, intravenous administration; cited from earlier work.
Take `C[C@H](Cc1ccc2c(c1)OC(C(=O)[O-])(C(=O)[O-])O2)NC[C@H](O)c1cccc(Cl)c1.[Na+].[Na+]` [CL316243]: the bladder pressure entry is given as “reduces bladder pressure”.

Staying with this assay, now noted: rats, intravenous administration; prolongation of micturition interval without increasing residual urine volume; cited from earlier work.
Regarding `C[C@H](Cc1ccc2c(c1)OC(C(=O)[O-])(C(=O)[O-])O2)NC[C@H](O)c1cccc(Cl)c1.[Na+].[Na+]` [CL316243], the “bladder capacity (cystometric studies)” value is on record as “increases bladder capacity”.
